Assay [1] addresses T1, His-GST-TVMV-hRIPK1(1-324) (Homo sapiens, UniProt Q13546).
T1 construct: The coding region of human RIPK1(1-324) flanked by NdeI site at 5′ end; made in house; host or cells: Spodoptera frugiperda Sf9 insect cells (baculovirus, Bac-to-Bac)
T1 sequence (Q13546 1-324): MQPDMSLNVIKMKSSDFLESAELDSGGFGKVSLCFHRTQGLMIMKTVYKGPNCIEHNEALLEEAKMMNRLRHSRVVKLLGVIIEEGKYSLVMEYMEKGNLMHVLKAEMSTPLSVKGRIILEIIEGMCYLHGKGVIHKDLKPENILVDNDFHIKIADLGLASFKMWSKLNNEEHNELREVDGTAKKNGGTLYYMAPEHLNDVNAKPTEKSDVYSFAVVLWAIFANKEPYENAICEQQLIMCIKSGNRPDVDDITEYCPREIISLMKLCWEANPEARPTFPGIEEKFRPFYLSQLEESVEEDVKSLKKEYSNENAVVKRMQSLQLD
In words: biochemical. As to conditions: HTRF probe displacement, 1 h at rt; read-out: RIPK1 IC50. The format is binding. Background: TR-FRET usually uses a lanthanide donor and a delayed reading to cut background.

Assay [2] concerns MLKL phosphorylation in HT29-L23 human colorectal adenocarcinoma cells. As to the kind of experiment: MLKL phosphorylation high-content assay. The format is cell-based. As to conditions: 6 h, necroptosis induced with TNFα, SMAC mimetic and Z-VAD, 6 h, maximal inhibition defined by Nec1s.
Setting [3] is: Homo sapiens, read-out: pMLKL IC50, HT29-L23 cells.
[4] abbreviates: read-out: pMLKL IC50, HT29-L23 cells.
The mark [5] stands for this setting: HT29-L23 cells, read-out: pMLKL IC50.

pIC50: −log10 of the molar value. Read-outs that look alike come from different tables or passages of the source.

Take `Nc1nc2cc(-c3ccc(Cl)c(C(=O)NCC(F)(F)C(O)c4ccc(C(F)(F)F)cc4F)c3F)ccn2n1` (centres unmarked) [Example 164, 3-(2-amino-[1,2,4]triazolo[1,5-a]pyridin-7-yl)-6-chloro-N-(2,2-difluoro-3-(2-fluoro-4-(trifluoromethyl)phenyl)-3-hydroxypropyl)-2-fluorobenzamide]: the results for the pIC50 in assay [1] and in assay [2] (setting [3]) were 8.55 and 8.54, respectively.
With `Nc1nc2cc(-c3ccc(Cl)c(C(=O)NCC(F)(F)C(O)c4cccc(F)c4F)c3F)ccn2n1` (single isomer, unassigned) [Example 166, 3-(2-amino-[1,2,4]triazolo[1,5-a]pyridin-7-yl)-6-chloro-N-(3-(2,3-difluorophenyl)-2,2-difluoro-3-hydroxypropyl)-2-fluorobenzamide], the pIC50 in assay [1] is 8.68; in assay [2] (setting [3]) it was 8.29.
As to `Cc1ccc(C(O)C(F)(F)CNC(=O)c2c(Cl)ccc(-c3ccn4nc(N)nc4c3)c2F)c(F)c1` (centres unmarked) [Example 183, 3-(2-amino-[1,2,4]triazolo[1,5-a]pyridin-7-yl)-6-chloro-N-(2,2-difluoro-3-(2-fluoro-4-methylphenyl)-3-hydroxypropyl)-2-fluorobenzamide], the figures for the pIC50 in assay [1] and in assay [2] (setting [4]) were 9.40 and 9.00, respectively.
In the case of `Cc1ccc(-c2ccn3nc(N)nc3c2)c(F)c1C(=O)NCCC(O)c1ccc(C(F)(F)F)cc1` (centres unmarked) [Example 55, 3-(2-amino-[1,2,4]triazolo[1,5-a]pyridin-7-yl)-2-fluoro-N-(3-hydroxy-3-(4-(trifluoromethyl)phenyl)propyl)-6-methylbenzamide], the values for the pIC50 in assay [1] and in assay [2] (setting [3]) were 9.52 and 9.05, respectively.
Regarding `Cc1ccc(-c2ccn3nc(N)nc3c2)c(F)c1C(=O)NCC(C)(F)C(O)c1ccc(F)cc1` (single isomer, unassigned) [Example 202, 3-(2-amino-[1,2,4]triazolo[1,5-a]pyridin-7-yl)-2-fluoro-N-(2-fluoro-3-(4-fluorophenyl)-3-hydroxy-2-methylpropyl)-6-methylbenzamide], the figures for the pIC50 in assay [1] and in assay [2] (setting [4]) were 7.89 and 8.68, respectively.
The like results for `[2H]C([2H])(CC([2H])(O)c1ccc(Cl)cc1)NC(=O)c1c(Cl)ccc(-c2ccn3nc(N)nc3c2)c1F` (single isomer, unassigned) [Example 77, 3-(2-amino-[1,2,4]triazolo[1,5-a]pyridin-7-yl)-6-chloro-N-(3-(4-chlorophenyl)-3-hydroxypropyl-1,1,3-d3)-2-fluorobenzamide] were, in that order, 8.54 and 8.11.
In the case of `[2H]C([2H])([2H])c1ccc(-c2ccn3nc(N)nc3c2)c(F)c1C(=O)NCC(F)(F)C(O)(c1ccc(F)cc1)C([2H])([2H])[2H]` (single isomer, unassigned) [Example 244, 3-(2-amino-[1,2,4]triazolo[1,5-a]pyridin-7-yl)-N-(2,2-difluoro-3-(4-fluorophenyl)-3-hydroxybutyl-4,4,4-d3)-2-fluoro-6-(methyl-d3)benzamide], the pIC50 is 8.57 in assay [1] and 8.92 in assay [2] (setting [4]).
For `Cc1cccc(C(O)C(F)(F)CNC(=O)c2c(Cl)ccc(-c3ccn4nc(N)nc4c3)c2F)c1` (centres unmarked) [Example 174, 3-(2-amino-[1,2,4]triazolo[1,5-a]pyridin-7-yl)-6-chloro-N-(2,2-difluoro-3-hydroxy-3-(m-tolyl)propyl)-2-fluorobenzamide], in that order: 8.55 and 8.85.
Take `Cc1ccc(-c2ccn3nc(N)nc3c2C)c(F)c1C(=O)NCC[C@H](O)c1ccc(Cl)cc1` (single isomer, unassigned; enantiomer 1) [Example 137]: the pIC50 in assay [1] is 8.01; in assay [2] (setting [5]), 9.05.
As to `Cc1ccc(-c2ccn3nc(N)nc3c2)c(F)c1C(=O)NCC(F)(F)C(O)c1ccnc(C(F)(F)F)c1` (single isomer, unassigned) [Example 260, 3-(2-amino-[1,2,4]triazolo[1,5-a]pyridin-7-yl)-N-(2,2-difluoro-3-hydroxy-3-(2-(trifluoromethyl)pyridin-4-yl)propyl)-2-fluoro-6-methylbenzamide], the results for the negative-log IC50 (pIC50) in assay [1] and in assay [2] (setting [4]) were 8.08 and 8.49, respectively.
As to `Nc1nc2cc(-c3ccc(Cl)c(C(=O)NCCC(O)c4ccc(C(F)(F)F)cc4)c3F)ccn2n1` (single isomer, unassigned) [Example 86, 3-(2-amino-[1,2,4]triazolo[1,5-a]pyridin-7-yl)-6-chloro-2-fluoro-N-(3-hydroxy-3-(4-(trifluoromethyl)phenyl)propyl)benzamide], the pIC50 in assay [1] is 8.66; in assay [2] (setting [4]) it was 8.12.
Regarding “(R)-3-(2-amino-[1,2,4]triazolo[1,5-a]pyridin-7-yl)-6-cyclopropyl-N-(2,2-difluoro-3-(4-fluorophenyl)-3-hydroxypropyl)-2-fluorobenzamide [Example 305]”, the pIC50 in assay [1] was 8.80; in assay [2] (setting [5]), 9.22.
With `Cc1ccc(-c2ccn3nc(N)nc3c2)c(F)c1C(=O)NCC(F)(F)C(N)c1ccc(F)cc1` (centres unmarked) [Example 275, N-(3-amino-2,2-difluoro-3-(4-fluorophenyl)propyl)-3-(2-amino-[1,2,4]triazolo[1,5-a]pyridin-7-yl)-2-fluoro-6-methylbenzamide], the values for the pIC50 in assay [1] and in assay [2] (setting [3]) were 8.19 and 8.82, respectively.
As for `Cc1ccc(-c2ccn3nc(N)nc3c2)c(F)c1C(=O)NCCC(C)(F)c1ccc(Cl)cc1` (centres unmarked) [Example 228, 3-(2-amino-[1,2,4]triazolo[1,5-a]pyridin-7-yl)-N-(3-(4-chlorophenyl)-3-fluorobutyl)-2-fluoro-6-methylbenzamide], the pIC50 is 9.05 in assay [1] and 9.00 in assay [2] (setting [3]).
`Cc1cc(F)c(-c2ccn3nc(N)nc3c2)cc1C(=O)NCC[C@H](O)c1ccc(Cl)cc1` [Example 1, (S)-5-(2-amino-[1,2,4]triazolo[1,5-a]pyridin-7-yl)-N-(3-(4-chlorophenyl)-3-hydroxypropyl)-4-fluoro-2-methylbenzamide]: the results for the negative-log IC50 (pIC50) in assay [1] and in assay [2] (setting [3]) were 8.92 and 8.89, respectively.
Turning to `Nc1nc2cc(-c3ccc(Cl)c(C(=O)NCC(F)C(O)c4ccc(Cl)cc4)c3F)ccn2n1` (centres unmarked) [Example 129, 3-(2-amino-[1,2,4]triazolo[1,5-a]pyridin-7-yl)-6-chloro-N-(3-(4-chlorophenyl)-2-fluoro-3-hydroxypropyl)-2-fluorobenzamide], the pIC50 in assay [1] is 8.46; in assay [2] (setting [4]), 8.77.
For `[2H]C([2H])([2H])c1ccc(-c2ccn3nc(N)nc3c2)c(F)c1C(=O)NCC1(C(O)c2ccc(F)cc2)CC1` (single isomer, unassigned) [Example 308, 3-(2-amino-[1,2,4]triazolo[1,5-a]pyridin-7-yl)-2-fluoro-N-((1-((4-fluorophenyl) (hydroxy)methyl)cyclopropyl)methyl)-6-(methyl-d3)benzamide], the pIC50 was 7.92 in assay [1] and 8.05 in assay [2] (setting [4]).
Take `[2H]C([2H])([2H])c1ccc(-c2ccn3nc(N)nc3c2)c(F)c1C(=O)NCC(F)(F)C(O)c1ccc(F)cc1` (centres unmarked) [Example 123, 3-(2-amino-[1,2,4]triazolo[1,5-a]pyridin-7-yl)-N-(2,2-difluoro-3-(4-fluorophenyl)-3-hydroxypropyl)-2-fluoro-6-(methyl-d3)benzamide]: the pIC50 was 8.24 in assay [1] and 9.10 in assay [2] (setting [3]).
With `CCc1cc(F)c(-c2ccn3nc(N)nc3c2)cc1C(=O)NCC[C@H](O)c1ccc(Cl)cc1` [Example 157], the values for the pIC50 in assay [1] and in assay [2] (setting [3]) were 8.51 and 8.17, respectively.

As a reminder, the pIC50 is −log10 of the IC50, conventionally taken in molar units.

The values are drawn from US11767322B2 (BRISTOL-MYERS SQUIBB COMPANY, priority 2020, dated 2023).
